Measurements: PubChem BioAssay (NCI)
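The compound was tested at five concentrations on cells cultured in 96-well plates, with a 48-hour exposure period. The concentration for 50% growth inhibition is given as GI50. TGI marks complete inhibition of growth.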

Assays:
Experiment in all cases: growth of human tumour cells (NCI), 48 h
NCI-H460 lung = system: NCI-H460 lung
MALME-3M melanoma = system: MALME-3M melanoma
HCT-15 colon = system: HCT-15 colon
CCRF-CEM leukemia = system: CCRF-CEM leukemia
EKVX NSCLC = system: EKVX NSCLC
KM12 colon = system: KM12 colon
SF-295 CNS = system: SF-295 CNS
HCC-2998 colon = system: HCC-2998 colon

| SMILES | TGI (NCI-H460 lung) | TGI (MALME-3M melanoma) | TGI (HCT-15 colon) | TGI (CCRF-CEM leukemia) | TGI (EKVX NSCLC) | TGI (KM12 colon) | TGI (SF-295 CNS) | GI50 (NCI-H460 lung) | GI50 (MALME-3M melanoma) | GI50 (HCT-15 colon) | GI50 (CCRF-CEM leukemia) | GI50 (EKVX NSCLC) | GI50 (KM12 colon) | GI50 (SF-295 CNS) | GI50 (HCC-2998 colon) | TGI (HCC-2998 colon) |
| --- | --- | --- | --- | --- | --- | --- | --- | --- | --- | --- | --- | --- | --- | --- | --- | --- |
| O=C(O)c1cc(CCc2cc(O)ccc2O)ccc1O | > 100 µM | > 100 µM | > 100 µM | 71.4 µM | > 100 µM | > 100 µM | > 100 µM |  |  |  |  |  |  |  |  |  |
| Nc1n[nH]c2ccc([C@@H]3Nc4cc5c(cc4[C@H]4C6CCC(C6)[C@@H]34)C(=O)NC5)cc12 (stereo partly drawn) | > 100 µM | > 100 µM | > 100 µM | > 100 µM | > 100 µM | > 100 µM | > 42 µM | 0.424 µM | 0.718 µM | 0.601 µM | 0.323 µM | 0.734 µM | 0.472 µM | 0.323 µM | 0.362 µM | > 41.5 µM |
| COc1cc2cc(Oc3ccc(NC(=O)c4ccc(Cl)c(Cl)c4)cc3)c(C)nc2cc1OC | > 100 µM | > 100 µM | > 100 µM | > 100 µM | > 100 µM | > 100 µM | > 100 µM | 25.4 µM | > 100 µM | 7.94 µM | 4.44 µM | 6.8 µM | 12.7 µM | 1.59 µM | > 100 µM | > 100 µM |
| CCC(=O)Nc1ccc(N2C(=O)/C(=C/c3ccc(OC)cc3)N=C2c2ccccc2)cc1 | > 50 µM |  | > 50 µM | > 50 µM | > 50 µM | > 50 µM | > 50 µM | 2.1 µM |  | 2.77 µM | > 50 µM | 42.9 µM | 3.65 µM | 28 µM |  |  |
| CN1CCN(CCCCCN=c2cc3c(=O)n(CCCCCN4CCN(C)CC4)c(=O)c4c(NCCCCCN5CCN(C)CC5)cc5c(O)n(CCCCCN6CCN(C)CC6)c(=O)c2c5c4-3)CC1 | 10.2 µM | 5.98 µM | > 100 µM | 26 µM | 17.2 µM | 8.39 µM | 57.2 µM | 3.06 µM | 2.55 µM | > 100 µM | 2.69 µM | 2.93 µM | 2.49 µM | 15.7 µM | 5.79 µM | 24.4 µM |
| N#CCCC1(CCC#N)CCCCCCCCC(CCC#N)(CCC#N)C(O)C1O (stereo not drawn) | > 100 µM | > 100 µM | > 100 µM |  | > 100 µM | > 100 µM | > 100 µM |  |  |  |  |  |  |  |  | > 100 µM |
| Cc1cc(C)c(C2CNCc3cc4c(cc32)CNCC4c2c(C)cc(C)cc2C)c(C)c1 (stereo not drawn) | 6.91 µg/mL | 7.45 µg/mL | 14.2 µg/mL | 5.07 µg/mL | 17.2 µg/mL | 6.74 µg/mL | 13.1 µg/mL | 2.53 µg/mL | 3.05 µg/mL | 4.13 µg/mL | 1.86 µg/mL | 5.97 µg/mL | 2.6 µg/mL | 3.44 µg/mL | 1.82 µg/mL | 3.85 µg/mL |
| CNNC(=NS(=O)(=O)c1cc(C#N)c(NNC)cc1S)NNC | > 10 µM | > 10 µM | > 10 µM | > 10 µM | > 10 µM | > 10 µM | > 10 µM |  |  |  |  |  |  |  |  | > 10 µM |
| C[n+]1c2ccccc2nc2c(N)cc(N)cc21 | 59 µM | 9.77 µM | > 100 µM | 48.3 µM | > 100 µM | > 100 µM | 31 µM | 16.8 µM | 2.39 µM | 57.6 µM | 4.63 µM | 8.04 µM | 13.7 µM | 3.6 µM | 12.6 µM | 93.2 µM |
| C=C1[C@@H](O)O[C@H]2[C@H]1C[C@H](OC(C)=O)[C@]13C(=O)O[C@H]4C[C@](C)(O)[C@H]([C@H]41)C31C=C(C)[C@]2(O)O1 | 96.9 µM | 46.1 µM | > 100 µM | > 100 µM | 0.0269 µM | > 100 µM | > 100 µM | 32.5 µM | 16.3 µM | 49.2 µM | 18.9 µM |  | 36.8 µM | 4.03 µM | 22.5 µM | 76.2 µM |
| COc1cc(/C=C/c2ccc3c(Br)cc(Br)c(O)c3n2)ccc1O | 11.5 µM | 18.4 µM | 15.3 µM | 3.03 µM | 14.9 µM | 13.2 µM | 14.4 µM | 0.446 µM | 4.81 µM | 0.424 µM | 0.359 µM | 1.42 µM | 1.41 µM | 0.912 µM |  |  |
| Cc1ccc(C2C3Cc4ccccc4C3=NN2c2ccc(S(=O)(=O)/N=c3\scc(-c4ccccc4)n3-c3ccccc3)cc2)cc1 (stereo not drawn) | 45.1 µM |  | 79.2 µM | 44 µM | 65.7 µM | 65.2 µM | 40.1 µM | 18.1 µM |  | 25.4 µM | 17.1 µM | 21.5 µM | 20.2 µM | 19.1 µM |  |  |
| C[C@@H]1O[C@@H](O[C@@H]2[C@@H](O)[C@H](OCCc3ccc(O)c(O)c3)O[C@H](CO)[C@H]2OC(=O)/C=C/c2ccc(O)c(O)c2)[C@H](O)[C@H](OC2OC[C@](O)(CO)[C@H]2O)[C@H]1O (stereo partly drawn) | > 100 µM |  | > 100 µM |  | > 100 µM | > 100 µM | > 100 µM | > 100 µM |  | > 100 µM |  | 63.9 µM | > 100 µM | > 100 µM |  |  |
| Fc1ccc(/C=N/n2c(-c3ccc(F)c(Cl)c3)n[nH]c2=S)cc1 | 38.3 µM | 60.2 µM |  | 96.6 µM | > 100 µM | > 100 µM | 76.8 µM | 19.2 µM | 18.3 µM |  | 32.2 µM | 32.3 µM | 43.6 µM | 31.7 µM | 34.8 µM | > 100 µM |
| Fc1cccc(F)c1C(Nc1nncs1)Nc1nncs1 | > 100 µM | > 100 µM | > 100 µM |  |  | > 100 µM | > 100 µM |  |  |  |  |  |  |  |  | > 100 µM |
| COc1ccc(NC(=O)C(=O)/C=C(\O)c2ccccc2)cc1 |  | > 10 µM | > 10 µM | 8.76 µM | > 10 µM | > 10 µM | > 10 µM |  |  |  |  |  |  |  |  | > 10 µM |
| COc1cc2ncc3c(nc4sccn43)c2cc1OC | > 100 µM | 32.6 µM | > 100 µM | > 100 µM | > 100 µM | > 100 µM | 62.8 µM | 13.6 µM | 5.86 µM | 11.1 µM | 46.4 µM | 20.7 µM | 8.38 µM | 18.3 µM |  |  |
| CC(CO)(Nc1ccc([N+](=O)[O-])cc1[N+](=O)[O-])C(=O)O (stereo not drawn) | 28.8 µM | 36.1 µM | 31.4 µM |  | 71.3 µM | > 100 µM | > 100 µM |  |  |  |  |  |  |  |  | 43.6 µM |
